Experiment: UV absorbance of sunscreen compositions (FIG. 9)
Format: physicochemical
Source text: FIG. 9 depicts the UV absorbance of two specific suncreen compositions.
Thus, to adequately protect human skin from the UV-induced enzymes that degrade the collagen matrix, and which inhibit collagen biosynthesis, a sunscreen formulation must block both radiation of less then 325 nm and that between about 360 nm and 400 nm. In our prior application Ser. No. 09/089,914, we proposed a sunscreen comprising a UVB blocker such as PARSOL MCX and a UVA blocker such as PARSOL 1789. Other UVB blockers known in the art, and in light of the information provided herein, are also suitable. However, various UVA blockers, including PARSOL 1789 and various others such as TINOSORB brand blockers (available from Ciba, Basel, Switzerland) are relatively broadband blockers and while blocking some of the UVA radiation in the >360-400 nm range, are not optimized for that region. […] As noted above, these wavelengths are greater than the 360 nm the industry desires to block with its compounds, because it is generally believed that a broad band absorber will provide the desired blocking effects. To the contrary, we have shown that it is sufficient to block narrow bands of UV radiation, namely 295-325 nm in the UVB, more preferably 305-325 nm, and those wavelengths above 360 nm in the UVA, and that blocking these wavelengths achieves the desired prevention of UV-induced […] of MMPs in human skin.

## COc1ccc(C(=O)CC(=O)c2ccc(C(C)(C)C)cc2)cc1 [PARSOL 1789]
UVA1 area of 340-360 nm
  UV absorbance: appears adequate
Area of 390-400 nm
  UV absorbance: almost no absorbance
At 370 nm
  UV absorbance: falls off
To 380 nm
  UV absorbance: falls off dramatically

— patent publication US20060269491A1, “UVA (> 360-400) and UVB (300-325) specific sunscreens” (priority 2000, published 2006)
